EP3294317B1, “ENHANCED ANTIBIOTIC COMPOSITION” (Universitat Autònoma de Barcelona, priority 2015, dated 2016)

Legend:
[1] = test system: Escherichia coli ATCC 25922; assay: Colistin broth microdilution MIC with potentiator compounds (Example 1); type: cell-based; details: E. coli ATCC 25922; MIC in the presence of 1.0% DMSO / MIC in the presence of 0.1 mM potentiator compound and 1.0% DMSO; positive = increased, negative = decreased susceptibility, 1 = no effect
[2] = test system: Escherichia coli ATCC 9637; assay: as above; type: cell-based; details: E. coli ATCC 9637; MIC in the presence of 1.0% DMSO / MIC in the presence of 0.1 mM potentiator compound and 1.0% DMSO; positive = increased, negative = decreased susceptibility, 1 = no effect
[3] = test system: Salmonella enterica subsp. enterica ATCC 14028; assay: as above; type: cell-based; details: S. enterica ATCC 14028; MIC in the presence of 1.0% DMSO / MIC in the presence of 0.1 mM potentiator compound and 1.0% DMSO; positive = increased, negative = decreased susceptibility, 1 = no effect
[4] = test system: Acinetobacter baumannii ATCC 15308; assay: as above; type: cell-based; details: A. baumannii ATCC 15308; MIC in the presence of 1.0% DMSO / MIC in the presence of 0.1 mM potentiator compound and 1.0% DMSO; positive = increased, negative = decreased susceptibility, 1 = no effect
[5] = test system: Pseudomonas aeruginosa ATCC 27853; assay: as above; type: cell-based; details: P. aeruginosa ATCC 27853; MIC in the presence of 1.0% DMSO / MIC in the presence of 0.1 mM potentiator compound and 1.0% DMSO; positive = increased, negative = decreased susceptibility, 1 = no effect
[6] = test system: Pseudomonas aeruginosa PAO1; assay: as above; type: cell-based; details: P. aeruginosa PAO1; MIC in the presence of 1.0% DMSO / MIC in the presence of 0.1 mM potentiator compound and 1.0% DMSO; positive = increased, negative = decreased susceptibility, 1 = no effect
[7] = test system: Stenotrophomonas maltophilia ATCC 13637; assay: as above; type: cell-based; details: S. maltophilia ATCC 13637; MIC in the presence of 1.0% DMSO / MIC in the presence of 0.1 mM potentiator compound and 1.0% DMSO; positive = increased, negative = decreased susceptibility, 1 = no effect
[8] = test system: Enterobacter aerogenes ATCC 13048; assay: as above; type: cell-based; details: E. aerogenes ATCC 13048; MIC in the presence of 1.0% DMSO / MIC in the presence of 0.1 mM potentiator compound and 1.0% DMSO; positive = increased, negative = decreased susceptibility, 1 = no effect
A. baumannii ATCC 15308 = assay: Broth microdilution MIC of other antibiotics with potentiator compounds (Example 2); type: cell-based, Acinetobacter baumannii; details: for Fold increase in bacterial susceptibility to TMP/SMX: Trimethoprim:sulfamethoxazole 1:19, MIC in 1.0% DMSO / MIC with 0.1 mM potentiator compound and 1.0% DMSO
Procedure: (§1) Following the procedure of Example 1, ciprofloxacin, amikacin, levofloxacin, tigecycline, imipenem and the combination trimethoprim/sulfamethoxasole (1:19) were tested. All were purchased from Sigma-Aldrich Co.
(§2) Minimal inhibitory concentration (MIC) of the antibiotic or the test combinations were determined by the broth microdilution method.
(§3) Antibiotic stock solutions were prepared according to CLSI recommendations and sterilizing by passage through 0.20 µm filters.
(§4) Antimicrobial susceptibility testing of these isolates was performed using the broth microdilution (BMD) method, according to CLSI guidelines.
(§5) The fold increase in bacterial susceptibility to antibiotics when combined with the potentiator compound (expressed as MIC in the presence of 1.0% DMSO / MIC in the presence of 0.1 mM of each potentiator compound and 1.0% DMSO) are shown in Table 4: […]

[9] = test system: S. maltophilia ATCC 13637; assay: as above; type: cell-based, Stenotrophomonas maltophilia
Procedure: as §1, §2, §3, §4, §5

P. aeruginosa ATCC 27853 = assay: as above; type: cell-based, Pseudomonas aeruginosa; details: for Fold increase in bacterial susceptibility to antibiotic indicated: any of ciprofloxacin, amikacin, levofloxacin, tigecycline, imipenem, TMP/SMX (1:19), 0.1 mM potentiator, 1.0% DMSO, 'none' = no antibiotic potentiated
Procedure: as §1, §2, §3, §4, §5

S. maltophilia 257 [10] = assay: Colistin broth microdilution MIC with potentiator compounds, resistant clinical isolates (Example 3); type: cell-based, Stenotrophomonas maltophilia; details: MIC in the presence of 1.0% DMSO / MIC in the presence of 0.1 mM compound and 1.0% DMSO, positive = increased susceptibility, 1 = no effect
Procedure: (§6) The potentiator effect of the compound of the invention and other compounds disclosed herein was tested using colistin sulfate as antibiotic and in combination with the enhancer compounds in front of resistant clinical isolates.
(§7) Tests were performed to determine the potentiator effect of the compound of the invention and other compounds disclosed herein with multidrug-resistant S. maltophilia and A. baumannii clinical strains as shown in Table 5: TABLE 5
(§8) For this experiment the potentiator compound was added to a colistin broth microdilution assay at a final concentration of 0.1mM. MICs were determined as described in the Example 1.
as §5, with “Colistin minimal inhibitory concentration (MIC), expressed in µg/mL, and the” for “The”, “colistin” for “antibiotics”, “6:” for “4:”

S. maltophilia M30 = assay: as above; type: cell-based, Stenotrophomonas maltophilia; details: MIC in the presence of 1.0% DMSO / MIC in the presence of 0.1 mM compound and 1.0% DMSO, positive = increased susceptibility, 1 = no effect
Procedure: as §6, §7, §8
as §5, with “Colistin minimal inhibitory concentration (MIC), expressed in µg/mL, and the” for “The”, “colistin” for “antibiotics”, “6:” for “4:”

A. baumannii 6799 [11] = assay: as above; type: cell-based, Acinetobacter baumannii; details: MIC in the presence of 1.0% DMSO / MIC in the presence of 0.1 mM compound and 1.0% DMSO, positive = increased susceptibility, 1 = no effect
Procedure: as §6, §7, §8
as §5, with “Colistin minimal inhibitory concentration (MIC), expressed in µg/mL, and the” for “The”, “colistin” for “antibiotics”, “6:” for “4:”

A. baumannii 6963 [12] = assay: as above; type: cell-based, Acinetobacter baumannii; details: MIC in the presence of 1.0% DMSO / MIC in the presence of 0.1 mM compound and 1.0% DMSO, positive = increased susceptibility, 1 = no effect
Procedure: as §6, §7, §8
as §5, with “Colistin minimal inhibitory concentration (MIC), expressed in µg/mL, and the” for “The”, “colistin” for “antibiotics”, “6:” for “4:”

S. maltophilia 257 [13] = assay: Broth microdilution MIC of other antibiotics with potentiator compounds, clinical isolates (Example 4); type: cell-based, Stenotrophomonas maltophilia; details: any of ciprofloxacin, amikacin, levofloxacin, imipenem, TMP/SMX (1:19), 0.1 mM compound, 1.0% DMSO, 'none' = no antibiotic potentiated
Procedure: (§9) Following the procedure of Example 3, ciprofloxacin, amikacin, levofloxacin, imipenem and the combination trimethoprim/sulfamethoxasole (1:19) were tested. All were purchased from Sigma-Aldrich Co.
as §2, §3, §4
(§10) The fold increase in bacterial susceptibility to antibiotics when combined with the potentiator compound (expressed as MIC in the presence of 1.0% DMSO / MIC in the presence of 0.1 mM of each potentiator compound and 1.0% DMSO) are shown in Table 7: […]

A. baumannii 6799 [14] = assay: as above; type: cell-based, Acinetobacter baumannii; details: for Fold increase in bacterial susceptibility to TMP/SMX: Trimethoprim:sulfamethoxazole 1:19, MIC in 1.0% DMSO / MIC with 0.1 mM compound and 1.0% DMSO
Procedure: as §9, §2, §3, §4, §10

A. baumannii 6963 [15] = assay: as above; type: cell-based, Acinetobacter baumannii; details: any of ciprofloxacin, amikacin, levofloxacin, imipenem, TMP/SMX (1:19), 0.1 mM compound, 1.0% DMSO, 'none' = no antibiotic potentiated
Procedure: as §9, §2, §3, §4, §10

[16] = MIC in 1.0% DMSO / MIC with 0.1 mM potentiator compound and 1.0% DMSO
[17] = any of ciprofloxacin, amikacin, levofloxacin, tigecycline, imipenem, TMP/SMX (1:19), 0.1 mM potentiator, 1.0% DMSO, 'none' = no antibiotic potentiated

| Structure (SMILES) | Fold increase in bacterial susceptibility to colistin [1] [fold] | Fold increase in bacterial susceptibility to colistin [2] | Fold increase in bacterial susceptibility to colistin [3] | Fold increase in bacterial susceptibility to colistin [4] | Fold increase in bacterial susceptibility to colistin [5] [fold] | Fold increase in bacterial susceptibility to colistin [6] | Fold increase in bacterial susceptibility to colistin [7] | Fold increase in bacterial susceptibility to colistin [8] [fold] | Fold increase in bacterial susceptibility to TMP/SMX (A. baumannii ATCC 15308) | Fold increase in bacterial susceptibility to Tigecycline [9, 16] | Fold increase in bacterial susceptibility to colistin (S. maltophilia 257 [10]) | Fold increase in bacterial susceptibility to colistin (S. maltophilia M30) | Fold increase in bacterial susceptibility to colistin (A. baumannii 6799 [11]) | Fold increase in bacterial susceptibility to colistin (A. baumannii 6963 [12]) | Fold increase in bacterial susceptibility to antibiotic indicated (S. maltophilia 257 [13]) | Fold increase in bacterial susceptibility to TMP/SMX (A. baumannii 6799 [14]) | Fold increase in bacterial susceptibility to antibiotic indicated (A. baumannii 6963 [15]) | Fold increase in bacterial susceptibility to antibiotic indicated (P. aeruginosa ATCC 27853) | further results |
| --- | --- | --- | --- | --- | --- | --- | --- | --- | --- | --- | --- | --- | --- | --- | --- | --- | --- | --- | --- |
| O=C(CCCN1C(=O)c2cccc3cccc(c23)C1=O)N1CCN(c2ccccc2O)CC1 [IIA, 2-[4-[4-(2-hydroxyphenyl)piperazin-1-yl]-4-oxobutyl]benzo[de]isoquinoline-1,3-dione] | 1 | +2 fold | +2 fold | +4 fold | -2 | 1 fold | +4 fold | 1 | Amikacin (2) TMP/SMX (2) fold | Tigecycline (2) fold | 1 fold | +8 fold | +2 fold | +2 fold | none | Amikacin (2) TMP/SMX (2) fold | none | – | Fold increase in bacterial susceptibility to Amikacin (A. baumannii ATCC 15308; [16]): Amikacin (2) TMP/SMX (2) fold; Fold increase in bacterial susceptibility to Imipenem (P. aeruginosa ATCC 27853; [16]): Imipenem (2) fold; Fold increase in bacterial susceptibility to Amikacin (A. baumannii 6799 [14]; MIC in 1.0% DMSO / MIC with 0.1 mM compound and 1.0% DMSO): Amikacin (2) TMP/SMX (2) fold |
| CCOC(=O)c1cc2cc(C(=O)N3CCN(Cc4cccc(C(F)(F)F)c4)CC3)ccc2[nH]1 [IIB, ethyl 5-[4-[[3-(trifluoromethyl)phenyl]methyl]piperazine-1-carbonyl]-1 H-indole-2-carboxylate] | 1 | +2 fold | +4 fold | >8 fold | 1 | +2 fold | +4 fold | 1 | TMP/SMX (2) fold | – | +4 fold | +16 fold | +2 fold | +2 fold | none | TMP/SMX (2) fold | none | none | Fold increase in bacterial susceptibility to antibiotic indicated [9, 17]: none |
| O=C(NCC(=O)N1CCN(c2cccc(Cl)c2)CC1)c1cccc(NC(=O)c2cccnc2)c1 [IIC, N-[3-[[2-[4-(3-chlorophenyl)piperazin-1-yl]-2-oxoethyl]carbamoyl]-phenyl]pyridine-3-carboxamide] | 1 | 1 fold | 1 fold | +4 fold | 1 | 1 fold | +4 fold | 1 | – | – | 1 fold | +16 fold | +2 fold | +2 fold | – | – | – | – | – |
| N#Cc1cccc(CN2CCC(c3cnn(Cc4cccc(C#N)c4)c3)CC2)c1 [IID, 3-[[4-[1-[(3-cyanophenyl)methyl]pyrazol-4-yl]piperidin-1-yl]methyl]-benzonitrile] | 1 | 1 fold | 1 fold | +4 fold | 1 | 1 fold | +8 fold | 1 | – | Ciprofloxacin (2) Tigecycline (2) fold | 1 fold | +16 fold | 1 fold | +4 fold | – | – | – | none | Fold increase in bacterial susceptibility to antibiotic indicated (A. baumannii ATCC 15308; [17]): none; Fold increase in bacterial susceptibility to Ciprofloxacin [9, 16]: Ciprofloxacin (2) Tigecycline (2) fold |
